Values of other authors as cited in patent publication US20230248696A1, “LENALIDOMIDE PRODRUGS, POLYMERIC CONJUGATES, AND FORMULATIONS THEREOF, AND THEIR USES FOR THE TREATMENT OF MULTIPLE MYELOMA” (DYNAMIC BIOLOGICS INC., priority 2019, published 2023).

Assays:
[1] = high solubility and low permeability
[2] = tested on: TNF-α, IL-1β, IL-6 and IL-12
[3] = not given; remark: listed apart in the source
[4] = tested on: IL-10, IL-2 and Interferon gamma (IFN-γ); conditions: peripheral blood mononuclear cells
KG-1 cells = conditions: cell line without chromosome 5 deletions
IL-2 = conditions: in vitro, versus racemic lenalidomide
[5] = in vitro, versus racemic lenalidomide
TNF-alpha = conditions: in vitro, versus racemic lenalidomide

| Structure (SMILES) | inhibiting growth of Namalwa cells (Namalwa cells) | BCS class [1] | inhibition of pro-inflammatory cytokines TNF-α, IL-1β, IL-6 and IL-12 [2] | patients discontinuing maintenance therapy because of neurotoxicity (maintenance therapy) [%] | patients with dyspepsia (multiple myeloma patients treated with lenalidomide) [%] | reduction of maximal plasma concentration (Cmax) by co-administration with food ([3]; co-administration with food) [%] | oral lenalidomide dose absorbed ([3]; oral, fasting conditions) [%] | reduction of area under the concentration-time curve (AUC) by food ([3]; oral, with food) [%] | reduction of maximum concentration (Cmax) by food ([3]; oral, with food) [%] | inhibition of COX-2 expression (cyclooxygenase-2 (COX-2)) | production of IL-10, IL-2 and IFN-γ [4] | inhibition of COX-1 expression (COX-1) | inhibiting growth of KG-1 cells (KG-1 cells) | potency for IL-2 induction (increased production) (IL-2) | potency for anti-proliferative activities [5] | potency for TNF-alpha inhibition (TNF-alpha) |
| --- | --- | --- | --- | --- | --- | --- | --- | --- | --- | --- | --- | --- | --- | --- | --- | --- |
| Nc1cccc2c1CN(C1CCC(=O)NC1=O)C2=O (racemic) [lenalidomide, 3-(4′ aminoisoindoline-1′-one)-1-piperidine-2,6-dione] | effective | 3 | potent inhibitor | 75 | 20 | 36 | > 90 | 20 | 50 | inhibits | increases production | not | much less effective |  |  |  |
| [2H]C1([2H])C(=O)NC(=O)[C@@]([2H])(N2Cc3c(N)cccc3C2=O)C1([2H])[2H] [CTP-221] |  |  |  |  |  |  |  |  |  |  |  |  |  | greater potency compared to racemic lenalidomide | greater potency compared to racemic lenalidomide | greater potency compared to racemic lenalidomide |
